Reference: patent US11213510B2, “Thioindirubins” (City of Hope, priority 2017, dated 2022)
Where two headings read alike, the source gives them in different places.

What was measured:
Type in all cases: cell-based
[1] = test system: DU145 prostate cancer cell line; assay: MTS cell viability assay, DU145; conditions: for Cell viability (% control) DU145 1 μM / Cell viability (% control) DU145 10 μM / Cell viability at 10 μM (% control) DU145: 48 h; for Cell viability (% control) DU145 1 μM / Cell viability (% control) DU145 10 μM / IC50: MTS; for IC50: DU145, 48 h, read-out: IC50 values (μM) against prostate cancer and melanoma DU145 (prostate cancer); for Cell viability at 10 μM (% control) DU145: MTS (Table 2)
Text: (§1) To determine if novel synthetic thioindirubins have antitumor activities, we performed an MTS cell viability assay. Initially, we screened them at […] final concentration with A2058 melanoma and DU145 prostate cancer cell lines. Then, compound 9b and compound 7e were selected to determine IC50 values against prostate cancer, melanoma and lung cancer cells, including DU145, A2058, A549, H513, H2461, H358, DMS114, H2596, DMS273, H69, H526 and DMS114 cell lines. For the viability assay, 5000 cells/well were seeded in 96-well plates, incubated overnight at 37° C. in 5% CO2 and then exposed to […] of compounds or in a dose-dependent manner for 48 h. After 48 h treatment with compounds, MTS dye (20 μL/well) was added to 96-well plates. Viable cell numbers were determined by tetrazolium conversion to its formazan dye. Absorbance was measured at 490 nm using the BMG LABTECH plate reader. Dimethyl sulfoxide (DMSO) was used as the vehicle control. Each experiment was conducted in triplicate. IC50 values were determined using CalcuSyn software (Biosoft).

A2058 melanoma cell line = assay: MTS cell viability assay, A2058; conditions: for Cell viability (% control) A2058 1 μM / Cell viability (% control) A2058 10 μM / Cell viability at 10 μM (% control) A2058: 48 h; for Cell viability (% control) A2058 1 μM / Cell viability (% control) A2058 10 μM / IC50: MTS; for IC50: A2058, 48 h, read-out: IC50 values (μM) against prostate cancer and melanoma A2058 (melanoma); for Cell viability at 10 μM (% control) A2058: MTS (Table 2)
Text: as §1

[2] = test system: H513 non-small lung cancer cell line; assay: MTS cell viability assay, H513; conditions: H513, 48 h, read-out: IC50 values (μM) against non-small lung cancer H513
Text: as §1

[3] = test system: H2596 non-small lung cancer cell line; assay: MTS cell viability assay, H2596; conditions: H2596, 48 h, read-out: IC50 values (μM) against non-small lung cancer H2596
Text: as §1

[4] = test system: H358 non-small lung cancer cell line; assay: MTS cell viability assay, H358; conditions: read-out: IC50 values (μM) against non-small lung cancer H358
Text: as §1

[5] = test system: H69 small lung cancer cell line; assay: MTS cell viability assay, H69; conditions: H69, 48 h, read-out: IC50 values (μM) against small lung cancer H69
Text: as §1

[6] = test system: DMS114 small lung cancer cell line; assay: MTS cell viability assay, DMS114; conditions: read-out: IC50 values (μM) against small lung cancer DMS114
Text: as §1

[7] = test system: A549 non-small lung cancer cell line; assay: MTS cell viability assay, A549; conditions: A549, 48 h, read-out: IC50 values (μM) against non-small lung cancer A549
Text: as §1

[8] = test system: H2461 non-small lung cancer cell line; assay: MTS cell viability assay, H2461; conditions: H2461, 48 h, read-out: IC50 values (μM) against non-small lung cancer H2461
Text: as §1

[9] = test system: H526 small lung cancer cell line; assay: MTS cell viability assay, H526; conditions: read-out: IC50 values (μM) against small lung cancer H526
Text: as §1

[10] = test system: DMS273 small lung cancer cell line; assay: MTS cell viability assay, DMS273; conditions: read-out: IC50 values (μM) against small lung cancer DMS273
Text: as §1

[11] = test system: lung cancer, prostate cancer and melanoma cell lines; assay: MTS cell viability assay, cancer cell line panel (summary statement); conditions: some cell lines, not specified; read-out: IC50 against some cell lines (antitumor activities)
Experimental: IC50 values (μM) of compound 9b were determined using lung cancer cell lines including non-small lung cancer cell lines (Table 3: A549, H513, H2461, H358, ad H2596) and small lung cancer cell lines (Table 4: DMS273, H69, H526, and DMS114), prostate cancer (Table 5: DU145), melanoma (Table 5: A2058).
as §1

Compound	Cell viability (% control) DU145 1 μM [1]	Cell viability (% control) DU145 10 μM ([1]; DU145, 10 μM)	Cell viability (% control) A2058 1 μM (A2058 melanoma cell line)	Cell viability (% control) A2058 10 μM (A2058 melanoma cell line; A2058, 10 μM)	other results
O=C1Sc2ccccc2/C1=C1/Nc2cc(Cl)ccc2/C1=N\O [Compound 7c, (2′Z,3′E)-6′-Chlorothioindirubin-3′-oxime]	>100 % control	33 % control	86 % control	27 % control	–
COC(=O)c1ccc2c(c1)S/C(=C1\C(=O)Nc3ccccc31)C2=O [Compound 6f, (2′Z)-6′-(Methoxycarbonyl)thioindirubin]	99 % control	93 % control	93 % control	>100 % control	–
N#Cc1ccc2c(c1)C(=O)/C(=C1/C(=O)Sc3ccccc31)N2 [Compound 6d, (2′Z)-5′-Cyanothioindirubin]	>100 % control	95 % control	95 % control	87 % control	–
N#Cc1ccc2c(c1)C(=N\O)/C(=C1/C(=O)Nc3ccccc31)S2 [Compound 7d, (2′Z,3′E)-5′-Cyanothioindirubin-3′-oxime]	>100 % control	93 % control	89 % control	99 % control	–
COC(=O)c1ccc2c(c1)C(=N\O)/C(=C1/C(=O)Nc3ccccc31)S2 [Compound 7e, (2′Z,3′E)-5′-(Methoxycarbonyl)thioindirubin-3′-oxime]	>100 % control	88 % control	90 % control	68 % control	IC50 [1]: > 10 µM; IC50 [2]: > 10 µM; IC50 [3]: > 10 µM; IC50 ([4]; H358, 48 h): 7.7 µM; IC50 [5]: > 10 µM; IC50 ([6]; DMS114, 48 h): > 10 µM; IC50 [7]: > 10 µM; IC50 [8]: > 10 µM; IC50 ([9]; H526, 48 h): > 10 µM; IC50 (A2058 melanoma cell line): > 10 µM; IC50 ([10]; DMS273, 48 h): > 10 µM
O=C1Sc2ccccc2/C1=C1/Nc2ccc(Br)cc2C1=O [Compound 6b, (2′Z)-5′-Bromothioindirubin]	>100 % control	>100 % control	97 % control	100 % control	–
COC(=O)c1ccc2c(c1)C(=O)/C(=C1/C(=O)Sc3ccccc31)N2 [Compound 6e, (2′Z)-5′-(Methoxycarbonyl)thioindirubin]	>100 % control	>100 % control	92 % control	94 % control	–
O=C1Nc2ccccc2/C1=C1/Sc2ccccc2/C1=N\OCCN1CCNCC1 [Compound 9a, (2′Z,3′E)-Thioindirubin-3′-[O-(2-(piperazin-1-yl)ethyl)]oxime]	–	–	–	–	Cell viability at 10 μM (% control) DU145 ([1]; DU145, 10 μM): 82 % control; Cell viability at 10 μM (% control) A2058 (A2058 melanoma cell line; A2058, 10 μM): 91 % control
COC(=O)c1ccc2c(c1)NC(=C1\C(=O)Sc3ccccc31)/C2=N/O [Compound 7f, (2′Z,3′E)-6′-(Methoxycarbonyl)thioindirubin-3′-oxime]	>100 % control	>100 % control	92 % control	>100 % control	–
Cc1ccc2c(c1)C(=N\O)/C(=C1/C(=O)Nc3ccccc31)S2 [Compound 7g, (2′Z,3′E)-5′-Methylthioindirubin-3′-oxime]	88 % control	79 % control	84 % control	88 % control	–
Cc1ccc2c(c1)C(=O)/C(=C1/C(=O)Nc3ccccc31)S2 [Compound 6g, (2′Z)-5′-Methylthioindirubin]	94 % control	>100 % control	>100 % control	97 % control	–
O=C1Sc2ccccc2/C1=C1/Nc2cc(Cl)ccc2C1=O [Compound 6c, (2′Z)-6′-Chlorothioindirubin]	80 % control	82 % control	84 % control	96 % control	–
O=C1Nc2ccccc2/C1=C1/Sc2ccccc2C1=O [Compound 6a, (2′Z)-Thioindirubin]	>100 % control	90 % control	99 % control	77 % control	–
COC(=O)c1ccc2c(c1)C(=N\OCCN1CCOCC1)/C(=C1/C(=O)Nc3ccccc31)S2 [Compound 9c, (2′Z,3′E)-5′-(Methoxycarbonyl)thioindirubin-3′-[O-(2-(morpholino)ethyl)]oxime]	–	–	–	–	Cell viability at 10 μM (% control) DU145 ([1]; DU145, 10 μM): 101 % control; Cell viability at 10 μM (% control) A2058 (A2058 melanoma cell line; A2058, 10 μM): 70 % control
COC(=O)c1ccc2c(c1)C(=N\OCCN1CCNCC1)/C(=C1/C(=O)Sc3ccccc31)N2 [Compound 9b, (2′Z,3′E)-5′-(Methoxycarbonyl)thioindirubin-3′-[O-(2-(piperazin-1-yl)ethyl)]oxime]	–	–	–	–	viabilities of these cells at 10 μM concentration (DU145), in words ([1]; DU145, 10 μM): extremely reduced viabilities; Cell viability at 10 μM (% control) DU145 ([1]; DU145, 10 μM): 17 % control; IC50 ([1]; Homo sapiens, DU-145): 2.53 µM; IC50 [2]: 1.6 µM; IC50 [3]: 1.02 µM; IC50 [11]: ~1000 nM; IC50 ([4]; Homo sapiens, NCI-H358, H358, 48 h): 2.4 µM; IC50 [5]: 0.78 µM; IC50 ([6]; Homo sapiens, DMS-114, DMS114, 48 h): 1.13 µM; IC50 ([7]; Homo sapiens): 4.6 µM; IC50 [8]: 1 µM; IC50 ([9]; Homo sapiens, NCI-H526, H526, 48 h): 1.7 µM; viabilities of these cells at 10 μM concentration (A2058), in words (A2058 melanoma cell line; A2058, 10 μM): extremely reduced viabilities; Cell viability at 10 μM (% control) A2058 (A2058 melanoma cell line; A2058, 10 μM): 8 % control; IC50 (A2058 melanoma cell line; Homo sapiens): 1.07 µM; IC50 ([10]; Homo sapiens, DMS-273, DMS273, 48 h): 6.1 µM
